Laboratory results as given in US20080045499A1, “Preferential Inhibition of Presenilin-1” (Elan Pharmaceuticals, Inc., priority 2006, published 2008).
pIC50: −log10 of the molar value. Read-outs that look alike come from different tables or passages of the source.

How the values were obtained:
[1] = test system: Presenilin-1-comprised γ-secretase relative to Presenilin-2-comprised γ-secretase; assay: PS1/PS2 selectivity: ratio of EC50 in Presenilin-2 and Presenilin-1 transfected cells; type: cell-based, human; settings: EC50 of Presenilin-2 transfected cells over Presenilin-1 transfected cells
From the text: (§1) EC50 values were derived by curve fitting of Aβ1-x levels, for samples treated with various concentrations of gamma secretase inhibitors, with XLfit software program (IDBS, Alameda, Calif., USA). Differences in EC50 values obtained for Presenilin-1 transfected cells and Presenilin-2 transfected cells exposed to a test compound served as an indicator of differential inhibition.
Cell culture medium is then removed from the transfected cell lines and analyzed for Aβ1-x levels by ELISA assay, as described in Example 1. ELISA assays are performed using ELISA plates coated with the mAb 266 to capture Aβ peptides and then by detecting Aβ peptides with biotinylated mAb 3D6. EC50 values are derived for all of the test compounds. Differences in EC50 values obtained for Presenilin-1 transfected cells and Presenilin-2 transfected cells exposed to a test compound serve as an indicator of differential inhibition.
For example, several tested compounds are sulfonamide compounds, while several are non-sulfonamide compounds. The ratio of the EC50 value obtained for Presenilin-2 transfected cells and Presenilin-1 transfected cells (indicated in the last column of Table I) indicates the degree to which the test compound is capable of preferentially inhibiting Presenilin-1. […] In Table 2, the values shown in columns A, B and C are EC50 values (nM). Where inhibition was very low, EC50 values were not generated by the program; thus EC50 values are not provided. Rather, percent of inhibition was estimated based on the inhibition curve generated by the program. Percentages indicate percentage inhibition at a compound concentration of 10 uM. […]

[2] = test system: 293sw; assay: 293sw IC50 of gamma-secretase inhibitors; type: cell-based
[3] = biological target: T1, Presenilin-2-comprised γ-secretase (Homo sapiens, UniProt P49810); assay: Aβ1-x ELISA in Presenilin-2 transfected PS1/PS2 double knockout mouse fibroblasts; type: cell-based; settings: for EC50: Aβ1-x, Presenilin-2 transfected cells, overnight; for inhibition at 10 µM: compound concentration of 10 uM, estimated from the inhibition curve
T1 construct: expressed in transfected cells; host or cells: mouse fibroblasts derived from PS1/PS2 double knockout cells, pCF vector
From the text: (§2) A131-x represents any Aβ peptides longer than Aβ1-23, including Aβ38, Aβ40, and Aβ42, since Aβ1-x is defined operationally by an ELISA assay using proprietary antibody mAb 266 for capture and proprietary antibody mAb 3D6 for detection. The epitope for mAb266 is Aβ16-23, and the epitope for mAb 3D6 is Aβ1-5. […] Aβ40 ELISA employed antibodies mAb 266 as capture and 2G3 (specific for Ab40) as detection, respectively. Furthermore, Aβ42 ELISA employed antibodies mAb 266 as capture and 21F12 as detection, respectively. Hybridomas producing antibodies against Aβ16-23 were generated by standard murine fusion procedures as detailed in Kohler and Milstein (Nature 256:495 1975) and U.S. Pat. No. 4,666,829 which are hereby incorporated by reference in their entireties. See also “Detailed Description” herein. Briefly, two BALB/c mice immunized with Aβ13-28 conjugated to 2C-11 (a T-cell receptor monoclonal antibody) were sacrificed and the spleens removed. Mixed splenocytes were obtained by pressing the spleens through a 30 mesh stainless steel screen. These were fused with P3X63Ag8 murine myeloma cells (aminopterin sensitive) at a fusion ratio of 10:1 in 35% polyethylene-glycol. These cells were plated out in 96 well tissue culture plates in the presence of 2×10^6 thymocytes/ml. Hybridomas were selected for by growing the cells in the presence of aminopterin poisoned Dulbecco's modified Eagle's media augmented with hypoxanthine, thymine and 10% fetal bovine serum. Hybridomas were screened for reactivity against Aβ13-28 and AAP protein via ELISA. Positive clones were sub-cloned twice. Aliquots of the clones were frozen and stored in liquid nitrogen. Supernatants from positive clones were produced in large quantities for further purification of monoclonal antibodies.
(§3) For ELISA assays, each well of 96-well ELISA plates was coated with 100 μl of 10 μg/ml 266 in Well Coating Buffer (pH 8.5) at 4 degrees overnight, and blocked with 0.25% human BSA solution at 25 degrees for 120 minutes. The plate can be used directly without wash, after removing blocking solution.
(§4) ELISA assays were performed at room temperature. Fifty μl of conditioned medium from overnight culture of transfected cells, with or without gamma secretase inhibitors, were added to each well of ELISA plates, and incubated for 1 hour. After washing plates with Tris-buffered saline (TBS) plus 0.05% Tween-20, 50 μl biotinylated 3D6 antibody at 0.5 μg/ml was added to each well and incubate for 45 minutes. […] Next, plates were washed with Tris-buffered saline (TBS) plus 0.05% Tween-20, and 50 μl substrate (1-step slow TMB-Elisa, Pierce, Woburn, Mass., USA, catalogue number: 34024) was added to each well and incubated for 15 min. Finally, substrate reactions were terminate by adding to each well 15 ul 2 NH2SO4, and OD readings were obtained on SpectraMax Plus (Molecular Devices, Sunnyvale, Calif., USA). The Aβ concentration of samples was then obtained by comparing sample OD readings to those of standards.
as §1
(§5) Transfected mouse fibroblasts derived from the PS1/PS2 double knockout cells are grown at 37 degree under 10% CO2 in Dulbecco's modified Eagle's medium (DMEM) containing 2-10% fetal bovine serum (FBS) and 100 μg/ml penicillin/streptomycin (Pen/Strp) (Invitrogen Corporation, Carlsbad, Calif., USA).
(§6) Cell culture medium is then removed from the transfected cell lines and analyzed for Aβ1-x levels by ELISA assay, as described in Example 1. ELISA assays are performed using ELISA plates coated with the mAb 266 to capture Aβ peptides and then by detecting Aβ peptides with biotinylated mAb 3D6.

[4] = biological target: T2, Presenilin-1-comprised γ-secretase (Homo sapiens, UniProt P49768); assay: Aβ1-x ELISA in Presenilin-1 transfected PS1/PS2 double knockout mouse fibroblasts; type: cell-based; settings: Aβ1-x, Presenilin-1 transfected cells, overnight
T2 construct: expressed in transfected cells; host or cells: mouse fibroblasts derived from PS1/PS2 double knockout cells, pCF vector
From the text: as §2, §3, §4, §1, §5, §6

[5] = column A, read-out: PS2 EC50* (nM) A
[6] = column B, read-out: PS2 EC50* (nM) B
[7] = column C, read-out: PS2 EC50* (nM) C
[8] = column A, read-out: PS1 EC50 (nM) A
[9] = column B, read-out: PS1 EC50 (nM) B
[10] = column C, read-out: PS1 EC50 (nM) C
[11] = column A, read-out: PS2 percentage inhibition, column A
[12] = column B, read-out: PS2 percentage inhibition, column B

| Compound | PS2/PS1 EC50 ratio [1] | EC50 [3, 5] | EC50 [3, 6] | EC50 [3, 7] | EC50 [4, 8] | EC50 [4, 9] | EC50 [4, 10] | inhibition at 10 µM [3, 11] | inhibition at 10 µM [3, 12] | pIC50 [2] |
| --- | --- | --- | --- | --- | --- | --- | --- | --- | --- | --- |
| O=C1NCCCC[C@H]1N(Cc1ccc(Br)cc1)S(=O)(=O)c1ccc(Cl)nc1 | 31 | 1570 nM | 2290 nM | – | 92 nM | 189 nM | 87 nM | – | – | 6.93 |
| COc1ccc(CN(C2CC(C)CCC2C)S(=O)(=O)c2ccc(Cl)cc2)cc1 (centres unmarked) | 22 | 3000 nM | 3460 nM | – | 136 nM | 161 nM | – | – | – | 6.75 |
| O=C1NCCCC[C@H]1N(Cc1ccc(Br)cc1)S(=O)(=O)c1ccc(Cl)cc1 | 15 | 1920 nM | 3410 nM | – | 106 nM | 259 nM | 159 nM | – | – | 6.61 |
| O=C1NCCCC[C@H]1N(Cc1cnc(N2CCCCC2)s1)S(=O)(=O)c1ccc(Cl)cc1 | ˜30 | – | – | – | 370 nM | 263 nM | – | 47% | 44% | 6.92 |
| O=C1NCCCC[C@H]1N(Cc1ccc(Br)cc1)S(=O)(=O)CC(F)(F)F | >10 | – | – | – | 1280 nM | 686 nM | – | 20% | 19% | 6.51 |
| CCC(C)N(C(C)CC)S(=O)(=O)c1ccc(Cl)nc1 (centres unmarked) | 4 | 5860 nM | 3320 nM | – | 1390 nM | 787 nM | – | – | – | 6.41 |
| CCCCN([C@@H]1CCCCNC1=O)S(=O)(=O)c1ccc(Cl)cc1 | >10 | – | – | – | 1410 nM | 928 nM | – | 26% | 15% | 6.72 |
| COc1ccc(CN([C@@H](CO)CC(C)C)S(=O)(=O)c2ccc(Cl)cc2)cc1OC | ˜26 | – | – | – | 385 nM | 364 nM | – | 47% | 48% | 6.91 |
| COc1ccc(CN([C@@H]2CCCCNC2=O)S(=O)(=O)c2ccc(Cl)cc2)cc1OC | 27 | 1290 nM | 1980 nM | 4540 nM | 91 nM | 89 nM | 109 nM | – | – | 6.90 |
| COc1ccc(CN(C2CCCCC2C)S(=O)(=O)c2ccc(Cl)cc2)cc1OC (centres unmarked) | 10 | 606 nM | 404 nM | – | 49 nM | 48 nM | – | – | – | 7.26 |

Now from value to compound, other results behind:

| PS2/PS1 EC50 ratio [1] | EC50 [3, 5] | EC50 [3, 6] | EC50 [3, 7] | EC50 [4, 8] | EC50 [4, 9] | EC50 [4, 10] | inhibition at 10 µM [3, 11] | inhibition at 10 µM [3, 12] | Compound | pIC50 [2] |
| --- | --- | --- | --- | --- | --- | --- | --- | --- | --- | --- |
| 12 | 175 nM | 156 nM | 263 nM | 20 nM | 5.9 nM | 26 nM | – | – | O=C1NCCCC[C@H]1N(Cc1ccc(-c2ncon2)cc1)S(=O)(=O)c1ccc(Cl)cc1 | 7.80 |
| 61 | 4000 nM | 2780 nM | – | 46 nM | 65 nM | – | – | – | O=C1NCCCC[C@H]1N(C/C=C/c1cccnc1)S(=O)(=O)c1ccc(Cl)cc1 | 7.38 |
| 47 | 6410 nM | 5310 nM | 3000 nM | 122 nM | 87 nM | 102 nM | – | – | Cn1nnc2cc(CN([C@@H]3CCCCNC3=O)S(=O)(=O)c3ccc(Cl)s3)ccc21 | 6.11 |
| 37 | 1410 nM | 1040 nM | – | 36 nM | 31 nM | – | – | – | O=C1NCCCC[C@H]1N(Cc1ccc2nccnc2c1)S(=O)(=O)c1ccc(Cl)cc1 | 8.05 |
| 2 | 45 nM | 44 nM | – | 10 nM | 37 nM | 17.5 nM | – | – | C[C@H](NC(=O)[C@@H](O)c1cc(F)cc(F)c1)C(=O)N[C@H](C(=O)NCC1CN(c2ccccc2)CCO1)c1ccccc1 (some centres unmarked) | 7.39 |
| 1.8 | 30 nM | 38 nM | – | 19 nM | 19 nM | – | – | – | O=C(NCc1ccccc1)c1ccc(CN([C@@H]2CCCCNC2=O)S(=O)(=O)c2ccc(Cl)cc2)cc1 | 8.00 |
| 1.5 | 60 nM | 91 nM | – | 57 nM | 44 nM | – | – | – | C[C@@H](NC(=O)c1ccc(CN([C@@H]2CCCCNC2=O)S(=O)(=O)c2ccc(Cl)cc2)cc1)c1ccccc1 | 7.80 |
| 10 | 585 nM | 412 nM | 553 nM | 30 nM | 50 nM | 74 nM | – | – | O=C1NCCCC[C@H]1N(Cc1ccc(-c2nccs2)cc1)S(=O)(=O)c1ccc(Cl)cc1 | 7.11 |
| 47 | 922 nM | 951 nM | – | 18 nM | 23 nM | – | – | – | O=C1NCCCC[C@H]1N(Cc1ccc2snnc2c1)S(=O)(=O)c1ccc(Cl)cc1 | 8.10 |
